In EPA's ToxValDB 9.5 (doi:10.2903/j.efsa.2009.191r):

What was measured:
[1] = test system: Rattus norvegicus; settings: acute; oral; mortality
[2] = test system: Apis mellifera; settings: acute, mortality
[3] = test system: Canidae; settings: chronic; duration: 1 years; oral; Dog Other; clinical signs
[4] = test system: Colinus virginianus; settings: acute, oral, mortality; for LC50: diet
[5] = test system: Anas platyrhynchos; settings: short-term; oral; feed; mortality
[6] = test system: Oncorhynchus mykiss; settings: acute; duration: 96 hours; mortality
[7] = test system: Daphnia magna; settings: acute; duration: 48 hours; mortality

Compound	LD50 [1]	LD50 ([2]; dermal)	LD50 ([2]; oral, unspecified)	NOAEL [3]	LC50 [4]	LD50 [4]	LC50 [5]	LC50 [6]	LC50 [7]
COc1ccc([N+](=O)[O-])cc1[O-].[Na+] [Sodium 2-methoxy-5-nitrophenolate]	716 mg/kg-day	> 100 µg/piece	132 µg/piece	0.3 mg/kg-day	1830 mg/kg-day	2070 mg/kg-day			
O=[N+]([O-])c1ccccc1[O-].[Na+] [Sodium 2-nitrophenolate]	960 mg/kg-day	> 100 µg/piece	124 µg/piece		> 2700 mg/kg-day	1050 mg/kg-day	> 2540 mg/kg-day		
O=[N+]([O-])c1ccc([O-])cc1.[Na+] [Sodium 4-nitrophenolate]	346 mg/kg-day	111 µg/piece	> 61.2 µg/piece	0.3 mg/kg-day	> 1410 mg/kg-day	> 1670 mg/kg-day		25 µg/mL	27.7 µg/mL
